# According to patent publication US20230312561A1, “SOLID FORMS OF (Z)-METHYL 3-(((4-(N-METHYL-2-(4-METHYLPIPERAZIN-1-YL)ACETAMIDO)PHENYL)AMINO)(PHENYL)METHYLENE)-2-OXO-2,3-DIHYDRO-1H-PYRROLO[2,3-B]PYRIDINE-6-CARBOXYLATE AND SALTS THEREOF” (Angion Biomedica Corp., priority 2020, published 2023):
# Legend:
# Format in all cases: physicochemical
# [1] = Solid state stability under desiccant conditions (two weeks)
# Protocol: Stability of Compound 1 Hydrochloride Forms A and C was evaluated under desiccant conditions. Compound 1 Hydrochloride Form A (Type 1 Lot) and a mixture comprising Compound 1 Hydrochloride Form A (Type 2 Lot) and Form C were stored under desiccant conditions for a two week period. Solids were then re-analyzed using methods described herein.
# [2] = Solid state stability in sealed vial (XRPD, TGA, HPLC)
# Protocol: High performance liquid chromatography (HPLC) was performed according to the conditions described in Table 1: […] Upon storage for the appropriate period, the entire sample was removed, and the resulting solids assessed via XRFD, HPLC and TGA. Sample preparation for HPLC was conducted using deionized water and a working concentration of 0.5 mg/mL. […] A control sample was packed and stored in an equivalent manner and tested at T=2 and 4 weeks. Form A was stable at 40° C. and 80° C. for at least up to 4 weeks.
# [3] = Organic solubility (thermodynamic, 25° C., heating cycle to 75° C.); conditions: for Solubility at 25° C.: 20 volumes; for XRPD after heat/cool cycle: cycle up to 75° C.
# Protocol: Compound 1 Hydrochloride Form A (Type 1 Lot) (ca. 50 mg) was equilibrated in a range of organic solvents in order to collect thermodynamic values for solubility. Solvents were charged in 500 μL aliquots (ca. 10 volumes) to the Compound 1 Hydrochloride Form A (Type 1 Lot) dispensed as a powder (ca. 50 mg) in 16 mm diameter glass reaction tubes until dissolution was achieved or up to 1000 μL (ca. 20 volumes) total volume was charged, with observations noted during dosing. The samples were equilibrated at 25° C. for a minimum of 24 hours with stirrer bead agitation.
# Samples which remained as suspensions and contained enough solids were split into two equal portions, with one portion isolated by filtration and the resulting damp solids profiled by XRPD. These solids were then dried in vacuo at 45° C. for ca. 16 hours before further profiling. The filtrates from the solvent suspensions were isolated, diluted by 1 in 50 using acetonitrile/water (1:1), and the Compound 1 content determined by HPLC against a single point standard.
# The remaining portion of each suspension was subjected to a heating cycle up to 75° C. with equilibration at 10° C. temperature intervals for a minimum of 30 minutes, before allowing to cool naturally to 40° C., followed by equilibration for ca. 16 hours before continuing to cool naturally (approximately 10° C./hr) to 25° C.
# [4] = Drying studies of Compound 1 Hydrochloride (XRPD, TGA)
# Protocol: Compound 1 Hydrochloride Form A was then subjected to drying under various conditions.
# Drying studies of Compound 1 Hydrochloride Form A (Type 1 Lot) were performed.
# Variability in the drying profiles of different lots of Compound 1 Hydrochloride were noted, particularly with regards to the transition between Form A and Form C. The variable behavior appeared to depend upon the nature of the input Form A batch (e.g., how it was generated and then conditioned, if at all, prior to drying, and/or if excess hydrochloric acid was present).
# Concentrated HCl (154 μL, 1 eqiuv) was added which clarified the suspension to a deep orange solution. The mixture was equilibrated for 30 minutes before cooling gradually to room temperature. A thin yellow suspension resulted. The solvent volume was reduced by 50% which thickened the suspension. The suspension was matured overnight, following which the solid was filtered to isolate the solids. The solid was air dried for ˜30 minutes giving a yellow solid (damp mass: 1.24 g; pH measured at 5.0). The XRPD pattern of the damp solid corresponded with Compound 1 Hydrochloride Form H. Analysis of the damp solid by DSC and TGA indicated a water content of 8.2%, which was fairly labile up ˜75° C.
# Compound 1 Hydrochloride Form H was then subjected to a drying study under various conditions.
# The solids were further subjected to prolonged drying.
# [5] = 40° C., sealed vial, T = 1 week
# [6] = 40° C., sealed vial, T = 2 weeks
# [7] = 40° C., sealed vial, T = 4 weeks
# [8] = 80° C., sealed vial, T = 1 week
# [9] = 80° C., sealed vial, T = 2 weeks
# [10] = 80° C., sealed vial, T = 4 weeks
# [11] = 150° C., sealed vial, T = 1 week
# [12] = Dry in vacuo at 25° C., T = 24 h
# [13] = Dry in vacuo at 25° C., T = 96 h
# [14] = Dry in vacuo at 25° C., T = 120 h
# [15] = Dry in vacuo at 45° C., T = 24 h
# [16] = Dry in vacuo at 45° C., T = 96 h
# [17] = Dry in vacuo at 45° C., T = 120 h
# [18] = Dry in vacuo at 70° C., T = 24 h
# [19] = Dry in vacuo at 70° C., T = 96 h
# [20] = Dry in vacuo at 70° C., T = 120 h
structure (smiles),measurement,setting,value
COC(=O)c1ccc2c(c1)NC(=O)/C2=C(\Nc1ccc(N(C)C(=O)CN2CCN(C)CC2)cc1)c1ccccc1.Cl [Compound 1 Hydrochloride Form A (Type 1 Lot)],Appearance After Storage,[1],Yellow powder
same,TGA weight reduction,[1],Weight reduction of 5.6%
same,XRPD,[1],Form A
same,solid state stability in sealed vial,"[2]; 40° C. and 80° C., at least up to 4 weeks",stable
same,HPLC (%),[2]; [5],99.43%
same,TGA (%),[2]; [5],12.01%
same,HPLC (%),[2]; [6],99.43%
same,TGA (%),[2]; [6],12.15%
same,HPLC (%),[2]; [7],99.65%
same,TGA (%),[2]; [7],11.6%
same,XRPD,[2]; [7],Form A
same,HPLC (%),[2]; [8],99.53%
same,TGA (%),[2]; [8],3.76%
same,HPLC (%),[2]; [9],99.45%
same,TGA (%),[2]; [9],3.71%
same,HPLC (%),[2]; [10],99.59%
same,TGA (%),[2]; [10],3.35%
same,HPLC (%),[2]; [11],36.6%
same,TGA (%),[2]; [11],1.14%
same,HPLC (%),"[2]; Ambient (control), T = 0",99.54%
same,TGA (%),"[2]; Ambient (control), T = 0",12.07%
same,HPLC (%),"[2]; Ambient (control), T = 2 weeks",99.43%
same,TGA (%),"[2]; Ambient (control), T = 2 weeks",11.99%
same,HPLC (%),"[2]; Ambient (control), T = 4 weeks",99.53%
same,TGA (%),"[2]; Ambient (control), T = 4 weeks",12.15%
same,XRPD,"[2]; Ambient (control), T = 4 weeks",Form A
same,Observation after heat/cool cycle,[3],Suspension
same,XRPD after equilibration at 25° C.,[3]; 2-Butanone,Form C
same,Solubility at 25° C.,[3]; 2-Butanone,4.9 µg/mL
same,XRPD after heat/cool cycle,[3]; 2-Butanone,Form C
same,XRPD after equilibration at 25° C.,[3]; 2-Propanol,Form C
same,Solubility at 25° C.,[3]; 2-Propanol,60 µg/mL
same,XRPD after heat/cool cycle,[3]; 2-Propanol,Form C
same,XRPD after equilibration at 25° C.,[3]; Acetone,Form C
same,Solubility at 25° C.,[3]; Acetone,14.4 µg/mL
same,XRPD after heat/cool cycle,[3]; Acetone,Form C
same,XRPD after equilibration at 25° C.,[3]; Acetonitrile,Form C
same,Solubility at 25° C.,[3]; Acetonitrile,170 µg/mL
same,XRPD after heat/cool cycle,[3]; Acetonitrile,Form C
same,Solubility at 25° C.,[3]; Anisole,8.1 µg/mL
same,XRPD after heat/cool cycle,[3]; Anisole,Unassigned form
same,XRPD after equilibration at 25° C.,[3]; DMSO,Form A
same,Solubility at 25° C.,[3]; DMSO,10820 µg/mL
same,XRPD after heat/cool cycle,[3]; DMSO,Form A
same,Solubility at 25° C.,[3]; Dichloromethane,1750 µg/mL
same,XRPD after heat/cool cycle,[3]; Dichloromethane,Form C
same,XRPD after equilibration at 25° C.,[3]; Diethyl ether,Form C
same,Solubility at 25° C.,[3]; Diethyl ether,3 µg/mL
same,XRPD after heat/cool cycle,[3]; Diethyl ether,Form C
same,XRPD after equilibration at 25° C.,[3]; Ethanol,Form C
same,Solubility at 25° C.,[3]; Ethanol,880 µg/mL
same,XRPD after heat/cool cycle,[3]; Ethanol,Form C
same,XRPD after equilibration at 25° C.,[3]; Ethyl acetate,Form C
same,Solubility at 25° C.,[3]; Ethyl acetate,1.8 µg/mL
same,XRPD after heat/cool cycle,[3]; Ethyl acetate,Form C
same,XRPD after equilibration at 25° C.,[3]; Heptane,Form A
same,Solubility at 25° C.,[3]; Heptane,2.2 µg/mL
same,XRPD after heat/cool cycle,[3]; Heptane,Form A
same,XRPD after equilibration at 25° C.,[3]; Isopropyl acetate,Form C
same,Solubility at 25° C.,[3]; Isopropyl acetate,2.8 µg/mL
same,XRPD after heat/cool cycle,[3]; Isopropyl acetate,Form C
same,XRPD after equilibration at 25° C.,[3]; MIBK,Form C
same,Solubility at 25° C.,[3]; MIBK,1.8 µg/mL
same,XRPD after heat/cool cycle,[3]; MIBK,Form C
same,XRPD after equilibration at 25° C.,[3]; Methanol,Form B
same,Solubility at 25° C.,[3]; Methanol,4480 µg/mL
same,XRPD after equilibration at 25° C.,[3]; TBME,Form A
same,Solubility at 25° C.,[3]; TBME,2.3 µg/mL
same,XRPD after equilibration at 25° C.,[3]; Tetrahydrofuran,Form C
same,Solubility at 25° C.,[3]; Tetrahydrofuran,12.5 µg/mL
same,XRPD after heat/cool cycle,[3]; Tetrahydrofuran,Form C
same,XRPD after equilibration at 25° C.,[3]; Toluene,Form A
same,Solubility at 25° C.,[3]; Toluene,0.6 µg/mL
same,dissolution in organic solvents on heating cycle,"[3]; any temperature (25° C.-75° C.), any solvent tested",Full or partial dissolution was not observed
same,XRPD after equilibration at 25° C.,[3]; n-Butyl acetate,Form C
same,Solubility at 25° C.,[3]; n-Butyl acetate,0.7 µg/mL
same,XRPD after heat/cool cycle,[3]; n-Butyl acetate,Form C
same,TGA (%),[4]; [12],11.12%
same,XRPD,[4]; [12],Form A
same,TGA (%),[4]; [13],10.14%
same,XRPD,[4]; [13],Form A
same,TGA (%),[4]; [14],10.47%
same,XRPD,[4]; [14],Form A
same,TGA (%),[4]; [15],9.84%
same,XRPD,[4]; [15],Form A
same,TGA (%),[4]; [16],8.71%
same,XRPD,[4]; [16],Form A
same,TGA (%),[4]; [17],10.19%
same,XRPD,[4]; [17],Form A
same,TGA (%),[4]; [18],10.48%
same,XRPD,[4]; [18],Form A
same,TGA (%),[4]; [19],8.19%
same,XRPD,[4]; [19],Form A
same,TGA (%),[4]; [20],10.85%
same,XRPD,[4]; [20],Form A
same,TGA (%),"[4]; T = 0, before drying",9.673%
